Source: ChEMBL document CHEMBL1201862, “PubChem BioAssay data set” (2004)
The source made the active and inactive calls.

How the values were obtained:
[1] = target: G-protein coupled receptor 55 (Homo sapiens, UniProt Q9Y2T6); test: selective activators of receptor GPR55 – imaging, U2OS cells, beta-arrestin-GFP redistribution, primary screen (AID 1961); format: functional
[2] = target: T1, Replicative DNA helicase DnaB (Mycobacterium tuberculosis, UniProt P9WMR3); test: DnaB intein splicing inhibitors, dose response, biochemical, cell-free fluorescence (AID 449749); format: functional
T1 sequence (P9WMR3 whole entry): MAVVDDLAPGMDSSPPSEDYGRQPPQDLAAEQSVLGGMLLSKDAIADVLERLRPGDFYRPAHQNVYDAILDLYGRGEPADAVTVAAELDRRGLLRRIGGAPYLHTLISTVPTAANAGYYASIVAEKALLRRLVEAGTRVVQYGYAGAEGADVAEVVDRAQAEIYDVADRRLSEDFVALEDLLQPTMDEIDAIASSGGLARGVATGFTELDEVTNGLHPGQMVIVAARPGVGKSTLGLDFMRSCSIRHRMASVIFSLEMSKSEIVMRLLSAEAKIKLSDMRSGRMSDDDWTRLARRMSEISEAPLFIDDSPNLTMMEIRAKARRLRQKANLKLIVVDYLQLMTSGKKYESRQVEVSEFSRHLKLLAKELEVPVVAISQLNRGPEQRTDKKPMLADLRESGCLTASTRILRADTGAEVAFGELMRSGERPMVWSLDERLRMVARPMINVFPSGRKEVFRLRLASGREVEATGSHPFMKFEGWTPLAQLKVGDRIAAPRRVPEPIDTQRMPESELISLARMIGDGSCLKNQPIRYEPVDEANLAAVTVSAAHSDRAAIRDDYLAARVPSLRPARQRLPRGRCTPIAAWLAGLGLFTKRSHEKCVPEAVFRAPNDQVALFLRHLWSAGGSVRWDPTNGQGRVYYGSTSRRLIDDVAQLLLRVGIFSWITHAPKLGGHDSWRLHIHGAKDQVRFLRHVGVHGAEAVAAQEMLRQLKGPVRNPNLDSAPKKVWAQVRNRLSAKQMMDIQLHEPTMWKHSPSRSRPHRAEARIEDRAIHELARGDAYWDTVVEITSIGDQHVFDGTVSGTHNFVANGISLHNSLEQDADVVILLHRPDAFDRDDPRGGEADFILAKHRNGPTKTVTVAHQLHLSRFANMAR

[3] = target: T2, Protein RecA (Mycobacterium tuberculosis, UniProt P9WHJ3); test: Fluorescence Cell-Free Homogeneous Dose Retest to Identify Inhibitors of RecA-Intein Splicing Activity. [Related pubchem assays (depositor defined):AID2097, AID2223, AID489010, AID492950]; format: functional
T2 sequence (P9WHJ3 whole entry): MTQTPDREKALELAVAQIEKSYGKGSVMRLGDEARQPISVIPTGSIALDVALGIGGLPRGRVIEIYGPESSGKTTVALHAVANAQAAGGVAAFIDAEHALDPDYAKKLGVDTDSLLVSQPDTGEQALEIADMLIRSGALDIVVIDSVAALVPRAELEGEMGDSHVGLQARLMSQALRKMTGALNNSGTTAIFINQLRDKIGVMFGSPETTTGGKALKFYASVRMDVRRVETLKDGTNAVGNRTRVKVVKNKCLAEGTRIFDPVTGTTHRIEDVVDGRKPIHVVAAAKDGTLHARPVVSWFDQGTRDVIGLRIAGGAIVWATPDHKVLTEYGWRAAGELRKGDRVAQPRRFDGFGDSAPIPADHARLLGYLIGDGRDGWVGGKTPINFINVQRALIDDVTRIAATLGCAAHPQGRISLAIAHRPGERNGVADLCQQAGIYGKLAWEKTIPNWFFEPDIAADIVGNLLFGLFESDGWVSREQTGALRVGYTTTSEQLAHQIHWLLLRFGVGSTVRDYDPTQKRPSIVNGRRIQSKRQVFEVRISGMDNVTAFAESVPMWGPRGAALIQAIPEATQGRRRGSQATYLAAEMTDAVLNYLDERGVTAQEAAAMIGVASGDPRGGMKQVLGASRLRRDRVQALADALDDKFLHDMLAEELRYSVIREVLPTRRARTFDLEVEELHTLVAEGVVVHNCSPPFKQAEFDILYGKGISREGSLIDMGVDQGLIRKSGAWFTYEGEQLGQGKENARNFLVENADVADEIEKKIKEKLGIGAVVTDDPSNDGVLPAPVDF

[4] = target: T3, Endoribonuclease toxin MazF (Escherichia coli K-12, UniProt P0AE70); test: activation of MazEF endoribonuclease cleavage – biochemical, fluorescence, single-stranded RNA substrate, uHTS hits, dose response (AID 588481); format: functional
T3 sequence (P0AE70 whole entry): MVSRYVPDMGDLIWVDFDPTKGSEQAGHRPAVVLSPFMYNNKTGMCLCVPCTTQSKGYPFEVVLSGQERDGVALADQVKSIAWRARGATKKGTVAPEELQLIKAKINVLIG

[5] = target: T3, Endoribonuclease toxin MazF; test: substrate-only fluorescence increase artefacts – biochemical, single-stranded RNase substrate, counter-screen for MazEF activator project, dose response (AID 588502); format: functional
[6] = target: UDP-galactopyranose mutase (Mycobacterium tuberculosis, UniProt P9WIQ1); test: Inhibitors of Mycobacterium tuberculosis UDP-galactopyranose mutase (UGM) enzyme Measured in Biochemical System Using Plate Reader - 2105-02_Inhibitor_Dose_CherryPick_Activity. [Related pubchem assays (depositor defined):AID504439]
[7] = target: Keap1/Nrf2 (Homo sapiens, UniProt Q14145); test: disruptors of Keap1 binding to Nrf2 peptide – biochemical, fluorescence polarization, cherry-picked samples, dose response (AID 588683)
[8] = target: T4, ORF 73 (Human herpesvirus 8, UniProt O40947); test: KSHV LANA DNA-binding disruption – biochemical, fluorescence polarization, cherry-picked samples, dose response (AID 504725); set-up: species or system Human gammaherpesvirus 8;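 also: fluorescence polarization of a labeled DNA duplex reporting LANA DNA binding; potency is for inhibitors that block LANA binding to the DNA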
T4 sequence (O40947 whole entry): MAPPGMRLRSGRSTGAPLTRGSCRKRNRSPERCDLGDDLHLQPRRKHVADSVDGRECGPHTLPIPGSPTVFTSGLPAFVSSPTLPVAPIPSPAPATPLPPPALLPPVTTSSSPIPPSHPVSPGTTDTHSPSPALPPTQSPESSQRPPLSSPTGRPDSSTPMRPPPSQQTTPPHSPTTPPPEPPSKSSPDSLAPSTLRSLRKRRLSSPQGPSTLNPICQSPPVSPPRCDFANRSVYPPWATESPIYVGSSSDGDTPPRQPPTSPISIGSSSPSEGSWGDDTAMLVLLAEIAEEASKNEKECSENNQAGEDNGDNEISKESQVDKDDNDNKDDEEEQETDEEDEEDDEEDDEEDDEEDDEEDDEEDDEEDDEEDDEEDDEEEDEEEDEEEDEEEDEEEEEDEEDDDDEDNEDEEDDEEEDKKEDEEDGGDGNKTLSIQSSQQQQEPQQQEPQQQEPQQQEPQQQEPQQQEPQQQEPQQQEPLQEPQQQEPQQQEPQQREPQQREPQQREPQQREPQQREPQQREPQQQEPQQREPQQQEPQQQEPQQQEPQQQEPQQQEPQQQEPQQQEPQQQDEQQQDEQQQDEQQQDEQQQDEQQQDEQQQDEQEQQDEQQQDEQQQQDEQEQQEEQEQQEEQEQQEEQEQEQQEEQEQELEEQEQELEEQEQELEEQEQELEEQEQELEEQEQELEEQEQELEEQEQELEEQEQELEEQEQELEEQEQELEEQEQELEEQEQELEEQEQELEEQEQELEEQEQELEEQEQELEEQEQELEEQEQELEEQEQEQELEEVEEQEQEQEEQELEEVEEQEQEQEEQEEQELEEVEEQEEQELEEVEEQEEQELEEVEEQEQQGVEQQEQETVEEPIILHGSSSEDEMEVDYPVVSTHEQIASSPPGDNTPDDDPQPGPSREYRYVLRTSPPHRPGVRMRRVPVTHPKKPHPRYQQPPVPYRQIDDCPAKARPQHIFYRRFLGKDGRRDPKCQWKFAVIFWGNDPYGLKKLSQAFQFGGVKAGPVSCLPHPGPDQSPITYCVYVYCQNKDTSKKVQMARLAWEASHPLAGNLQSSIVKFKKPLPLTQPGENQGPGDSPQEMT

[9] = system: Salmon testes DNA; test: acridine orange-DNA binding displacement – biochemical, fluorescence polarization, cherry-picked samples, set 2, artefact control for KSHV LANA DNA-binding inhibitor project, dose response (AID 504727); set-up: species or system Salmonidae
[10] = target: T5, Phosphomannomutase 2 (Homo sapiens, UniProt O15305); test: Counter screen SAR assay for PMM2 inhibitors via a fluorescence intensity assay. [Related pubchem assays (depositor defined):AID1545, AID1574]
T5 sequence (O15305 whole entry): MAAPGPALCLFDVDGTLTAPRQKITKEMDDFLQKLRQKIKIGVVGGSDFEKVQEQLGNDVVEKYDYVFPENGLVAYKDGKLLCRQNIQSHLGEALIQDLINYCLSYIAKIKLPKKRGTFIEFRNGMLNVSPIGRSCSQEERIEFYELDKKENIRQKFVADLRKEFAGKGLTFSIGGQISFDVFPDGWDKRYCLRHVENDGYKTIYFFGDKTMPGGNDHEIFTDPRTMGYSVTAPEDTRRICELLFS

[11] = target: Phosphoethanolamine/phosphocholine phosphatase (Homo sapiens, UniProt Q8TCT1); test: SAR assay for compounds that inhibit PHOSPHO1. [Related pubchem assays (depositor defined):AID1545, AID1565, AID1574]
[12] = target: T6, Short transient receptor potential channel 4 (Mus musculus, UniProt Q9QUQ5); test: potentiation of DAMGO-evoked TRPC4 calcium signal – cell-based, HEK293 TRPC4/mu-opioid, Fluo-4 calcium, EC20 DAMGO, dose response (AID 434941); format: functional
T6 sequence (Q9QUQ5 whole entry): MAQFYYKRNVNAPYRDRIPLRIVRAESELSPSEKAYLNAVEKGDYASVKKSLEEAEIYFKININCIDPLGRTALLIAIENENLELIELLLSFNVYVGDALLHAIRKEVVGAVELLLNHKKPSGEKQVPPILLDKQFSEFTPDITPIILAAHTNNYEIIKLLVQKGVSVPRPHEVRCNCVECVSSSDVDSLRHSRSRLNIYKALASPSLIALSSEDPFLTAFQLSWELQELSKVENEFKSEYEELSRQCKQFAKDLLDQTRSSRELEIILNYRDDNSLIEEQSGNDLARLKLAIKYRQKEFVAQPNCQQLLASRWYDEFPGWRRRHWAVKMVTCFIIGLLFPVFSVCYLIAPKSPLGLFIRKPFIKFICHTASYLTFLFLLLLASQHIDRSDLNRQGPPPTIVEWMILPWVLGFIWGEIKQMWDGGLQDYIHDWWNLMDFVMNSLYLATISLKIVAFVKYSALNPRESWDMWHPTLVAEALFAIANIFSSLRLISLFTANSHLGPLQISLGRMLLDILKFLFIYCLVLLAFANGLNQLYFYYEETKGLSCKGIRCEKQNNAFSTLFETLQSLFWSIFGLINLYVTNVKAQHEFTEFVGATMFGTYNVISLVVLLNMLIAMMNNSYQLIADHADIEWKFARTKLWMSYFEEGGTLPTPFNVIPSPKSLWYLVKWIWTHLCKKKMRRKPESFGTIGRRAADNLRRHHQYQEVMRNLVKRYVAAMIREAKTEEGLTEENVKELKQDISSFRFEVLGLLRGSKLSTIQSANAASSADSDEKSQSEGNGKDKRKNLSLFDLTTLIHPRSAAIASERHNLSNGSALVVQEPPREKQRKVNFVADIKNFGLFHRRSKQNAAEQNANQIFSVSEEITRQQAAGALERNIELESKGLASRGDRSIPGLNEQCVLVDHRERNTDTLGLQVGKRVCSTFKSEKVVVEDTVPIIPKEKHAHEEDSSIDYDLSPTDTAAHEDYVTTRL

UDP-galactopyranose mutase, sequence (P9WIQ1 whole entry): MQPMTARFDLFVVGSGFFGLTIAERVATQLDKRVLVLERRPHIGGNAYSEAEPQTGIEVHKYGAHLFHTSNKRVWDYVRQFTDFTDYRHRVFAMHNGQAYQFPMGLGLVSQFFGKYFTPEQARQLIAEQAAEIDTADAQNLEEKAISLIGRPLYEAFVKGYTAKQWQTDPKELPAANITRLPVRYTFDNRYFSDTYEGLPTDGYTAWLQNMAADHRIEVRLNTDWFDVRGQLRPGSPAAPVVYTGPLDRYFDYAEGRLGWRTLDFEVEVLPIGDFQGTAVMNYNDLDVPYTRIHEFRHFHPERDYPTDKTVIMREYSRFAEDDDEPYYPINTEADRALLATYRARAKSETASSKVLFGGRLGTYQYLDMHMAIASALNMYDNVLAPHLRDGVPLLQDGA
G-protein coupled receptor 55, sequence (Q9Y2T6 whole entry): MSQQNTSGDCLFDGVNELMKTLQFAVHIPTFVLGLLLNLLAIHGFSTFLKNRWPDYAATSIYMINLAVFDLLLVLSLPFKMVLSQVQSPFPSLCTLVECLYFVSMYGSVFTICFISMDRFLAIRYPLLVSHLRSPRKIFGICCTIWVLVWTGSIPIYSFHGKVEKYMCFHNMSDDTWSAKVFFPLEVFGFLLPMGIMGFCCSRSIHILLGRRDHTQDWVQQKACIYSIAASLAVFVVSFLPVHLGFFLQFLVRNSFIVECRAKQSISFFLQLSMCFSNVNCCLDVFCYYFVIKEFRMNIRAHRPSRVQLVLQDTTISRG
Keap1/Nrf2, sequence (Q16236 whole entry): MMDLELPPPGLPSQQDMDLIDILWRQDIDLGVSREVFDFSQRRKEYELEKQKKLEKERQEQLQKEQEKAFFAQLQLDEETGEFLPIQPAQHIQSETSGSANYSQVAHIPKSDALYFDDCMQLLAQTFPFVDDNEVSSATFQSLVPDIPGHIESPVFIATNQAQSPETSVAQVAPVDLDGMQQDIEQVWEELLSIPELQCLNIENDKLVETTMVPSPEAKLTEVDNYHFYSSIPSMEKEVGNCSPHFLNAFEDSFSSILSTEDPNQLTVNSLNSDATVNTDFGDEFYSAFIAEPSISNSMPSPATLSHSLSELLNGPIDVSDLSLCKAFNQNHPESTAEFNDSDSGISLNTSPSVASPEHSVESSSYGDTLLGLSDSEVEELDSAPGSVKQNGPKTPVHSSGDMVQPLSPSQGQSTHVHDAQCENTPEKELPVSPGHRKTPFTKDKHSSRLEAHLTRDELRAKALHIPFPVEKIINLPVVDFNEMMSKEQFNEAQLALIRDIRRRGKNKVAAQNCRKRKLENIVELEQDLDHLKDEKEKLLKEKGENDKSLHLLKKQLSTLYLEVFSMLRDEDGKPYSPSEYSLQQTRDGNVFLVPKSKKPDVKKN
Keap1/Nrf2, sequence (Q14145 whole entry): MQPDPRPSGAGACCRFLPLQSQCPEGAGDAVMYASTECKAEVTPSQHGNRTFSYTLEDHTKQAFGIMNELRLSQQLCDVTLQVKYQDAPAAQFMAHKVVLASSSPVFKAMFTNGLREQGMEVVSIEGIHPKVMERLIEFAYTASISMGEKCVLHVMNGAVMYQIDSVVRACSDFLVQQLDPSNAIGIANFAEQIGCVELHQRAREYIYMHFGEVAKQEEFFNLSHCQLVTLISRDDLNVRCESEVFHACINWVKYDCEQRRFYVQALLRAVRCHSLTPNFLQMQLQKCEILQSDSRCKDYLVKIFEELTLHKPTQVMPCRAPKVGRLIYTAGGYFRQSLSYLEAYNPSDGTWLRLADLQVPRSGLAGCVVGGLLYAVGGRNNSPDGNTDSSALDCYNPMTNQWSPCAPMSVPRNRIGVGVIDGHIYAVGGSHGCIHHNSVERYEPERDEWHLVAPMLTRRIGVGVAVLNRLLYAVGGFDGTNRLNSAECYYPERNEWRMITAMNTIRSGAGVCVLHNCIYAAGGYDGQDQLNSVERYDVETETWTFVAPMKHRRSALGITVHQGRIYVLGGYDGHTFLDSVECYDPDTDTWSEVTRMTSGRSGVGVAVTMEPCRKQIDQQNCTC
Phosphoethanolamine/phosphocholine phosphatase, sequence (Q8TCT1 whole entry): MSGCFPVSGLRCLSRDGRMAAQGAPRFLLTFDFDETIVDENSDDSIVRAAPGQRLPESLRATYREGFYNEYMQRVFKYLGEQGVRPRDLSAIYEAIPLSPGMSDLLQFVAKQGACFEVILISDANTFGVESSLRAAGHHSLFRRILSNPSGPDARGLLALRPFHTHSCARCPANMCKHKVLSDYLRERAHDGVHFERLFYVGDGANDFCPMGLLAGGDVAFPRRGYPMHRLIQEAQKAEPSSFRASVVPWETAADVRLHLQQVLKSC

O=C(c1ccncc1)N(c1ccc2oc3c(c2c1)CCCC3)S(=O)(=O)c1ccc(F)cc1
EC50 [1]: > 32 µM (inactive) | AC50 [2]: 2.09 µM (active) | EC50 [3]: 6.22 µM (active)

Cc1cc2nc3c(O)nc(S)nc3nc2cc1NC(=O)C(F)(F)F
EC50 [4]: > 99 µM (inactive) | EC50 [5]: > 99 µM (inactive) | AC50 [6]: 19.6 µM (active) | AC50 [7]: > 52 µM (inactive) | AC50 [8]: 40.6 µM (active) | AC50 [9]: 86.4 µM (active)

CN(C)c1cccc(-n2sc3ccccc3c2=O)c1
IC50 [10]: 85.2 µM (active) | IC50 [11]: 52.9 µM (inactive)

O=C(c1cccc([N+](=O)[O-])c1)N1CCCC(C(=O)N2CCCCCC2)C1 (configuration not stated)
EC50 [12]: 0.33 µM (active)
